Tests used:
RPMI-8226 target cells = assay: ACTR T-cell proliferation (live CD3+ T cell count, flow cytometry, 7 days); type: cell-based, human; conditions: ACTR variant SEQ ID NO: 1, E:T 1:1, hSG16.17 SEA 1 μg/mL, absence or presence of lenalidomide 1 μM, 7 day
Protocol: (§1) T-cells expressing ACTR variant SEQ ID NO: 1 (effector; E) and target cells (target; T) were incubated at a 1:1, effector-to-target ratio (30,000 T cells; 30,000 target cells) with increasing concentrations of humanized afucosylated (SEA) BCMA antibody in a 200-μL reaction volume in RPMI 1640 media supplemented with 10% fetal bovine serum and 25 U/mL IL2. Reactions were incubated in a CO2 (5%) incubator at 37 degrees C. for 7 days. The number of live CD3+ T-cells were determined at day 1 and day 7 and compared to the input number of T-cells (dotted line). Briefly, at day 1 and day 7, cells were washed twice in staining buffer before being stained with a Live/Dead eFluor-780 dye for 30 min at 4 degrees C. […] After staining, cells were washed twice again with staining buffer and staining was subsequently detected via flow cytometry. […]
Mock or ACTR T cells (effector; E) and target cells (target; T) were incubated at a 1:1, effector-to-target cell ratio in the presence and absence of the anti-BCMA antibody, hSG16.17 SEA (1 μg/mL). […] The total CD3+ T cell count was determined by flow cytometry after a 7 day incubation in a CO2 (5%) incubator. […] After staining, cells were washed twice with staining buffer and detected via flow cytometry. […]

NCI-H929 target cells = assay: as above; type: cell-based, human; conditions: ACTR variant SEQ ID NO: 1, E:T 1:1, hSG16.17 SEA 1 μg/mL, absence or presence of lenalidomide 1 μM, 7 day
Protocol: as §1
Mock T cells or ACTR T cells (effector; E) and target cells (target; T) were incubated at a 1:1, effector-to-target cell ratio (30,000 target cells) with increasing concentration of humanized afucosylated anti-BCMA antibody (hSG16.17SEA) in a 200-μL reaction volume in RPMI 1640 media supplemented with 10% fetal bovine serum. […] The counts of live CD3+ T cells were determined at day 7. […] After staining, cells were washed twice again with staining buffer and staining was subsequently detected via flow cytometry. […]

Nc1cccc2c1CN(C1CCC(=O)NC1=O)C2=O (centres unmarked) [Lenalidomide, lenalidomide, reference compound]
CD3+ T cell count (RPMI-8226 target cells): further enhanced the proliferation | CD3+ T cell count (NCI-H929 target cells): further enhanced the proliferation

Source: patent US20190381171A1, “CO-USE OF ANTI-BCMA ANTIBODY AND ANTIBODY-COUPLED T CELL RECEPTOR (ACTR) IN CANCER THERAPY AND B CELL DISORDERS” (UNUM THERAPEUTICS INC., priority 2017, published 2019)
